19 compounds from PubChem BioAssay (NCI) can be followed below.

Each structure is given as a SMILES string.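 Test compounds were applied to cells in 96-well plates for 48 hours at 5 doses. TGI denotes the concentration required for complete inhibition of growth.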

Holding throughout (assay): NCI anticancer screen, dose series, 48 h
Assay [1] has as its system KM12 colon.
Assay [2] concerns SN12C renal.
For assay [3], the system named is U251 CNS.
Assay [4] relates to SF-295 CNS.
Assay [5] concerns A549 NSCLC.
Assay [6] concerns NCI/ADR-RES ovarian.
In assay [7] the test system is SR leukemia.
In assay [8] the test system is NCI-H226 lung.
The subject of assay [9] is NCI-H460 lung.
The subject of assay [10] is SK-OV-3 ovarian.
For assay [11], the system named is RPMI-8226 leukemia.
In assay [12] the test system is SK-MEL-2 melanoma.
Assay [13] concerns CCRF-CEM leukemia.
The test system of assay [14] is HCC-2998 colon.
Assay [15] relates to SF-539 CNS.
Assay [16] concerns EKVX NSCLC.
For assay [17], the system named is A498 renal.

`Cc1cc(N(CCCCl)CCCCl)ccc1C=Nc1cccc(Cl)c1`: the TGI in [1] came to 26.3 µM; in assay [2] it was 37.1 µM; in assay [3] it was 32.2 µM; in assay [4], 43.5 µM; in assay [5], 24.7 µM; in assay [6] it was 33.4 µM. Moreover, the TGI in assay [7] was 24 µM; in [8], 0.562 µM; in assay [9], 22.6 µM; in assay [10], 61.7 µM; in assay [11], 0.231 µM; in assay [12], 36.5 µM.
With `CSCCCNC(=O)c1csc(-c2csc(CCN)n2)n1`, the TGI in assay [1], in assay [2], in [13], in assay [3], in [14] and in assay [15] was above 100 µM in each case. Moreover, the TGI in assay [16], in [4], in assay [5], in assay [6], in [7] and in assay [9] was above 100 µM throughout. The TGI in [10] and in assay [11] was above 100 µM in each case.
Consider `NC1=CN(Cc2ccccc2)C2=N/C(=C\c3ccccc3)C(=O)N12`, for which the TGI in assay [1], in assay [17], in assay [2], in assay [13], in assay [3] and in [14] was above 100 µM each time. The TGI in assay [15], in assay [16], in assay [4], in assay [5], in assay [6] and in [8] was above 100 µM each time. Besides, the TGI in assay [9], in assay [10], in [11] and in [12] was above 100 µM in each case.
Take `C[n+]1ccc(-c2cc[n+](C)cc2)cc1`: the TGI was above 92.4 µM in assay [1]; above 50.3 µM in [17]; 30.3 µM in assay [2]; above 100 µM in assay [13]; above 70.9 µM in [3]; 97.8 µM in [14]. The TGI in [15] is above 46.4 µM; in assay [16], above 60.2 µM; in assay [4], above 37.6 µM; in assay [5], above 95 µM; in assay [7], above 31.6 µM; in assay [8], 43.1 µM. The TGI in assay [9] was above 33.5 µM; in assay [10], above 100 µM; in assay [11], above 100 µM; in [12], 13.1 µM.
Regarding `NNc1ccccc1Cl`, the TGI in assay [1], in assay [17], in assay [2], in assay [13], in [3] and in assay [14] was above 100 µM each time. Besides, the TGI in assay [15], in assay [16], in assay [4], in assay [5], in assay [6] and in assay [8] was above 100 µM each time. Moreover, the TGI in [9], in [10], in assay [11] and in assay [12] was above 100 µM each time.
On to `CC(C)=CCC[C@](C)(O[C@@H]1O[C@H](CO)[C@@H](O)[C@H](O)[C@H]1O)[C@H]1CC[C@]2(C)[C@@H]1[C@H](O)C[C@@H]1[C@@]3(C)CC[C@H](O)C(C)(C)[C@@H]3[C@@H](O[C@@H]3O[C@H](CO)[C@@H](O)[C@H](O)[C@H]3O)C[C@]12C`, for which the TGI in [1], in assay [17], in assay [2], in [13], in assay [3] and in [14] was above 100 µM each time. In addition, the TGI in assay [15], in assay [16], in assay [4], in assay [5], in assay [7] and in [8] was above 100 µM in each case. For the same compound, the TGI in [9], in [10], in assay [11] and in assay [12] was above 100 µM each time.
Take `Cc1cc(=O)oc2c1cc(OCC(=O)OCCN1CCCCC1)c1occ(C)c12`: the TGI in assay [1], in assay [17], in assay [2], in assay [13], in assay [3] and in assay [14] was above 100 µM each time. The TGI in assay [15], in assay [16], in assay [4], in assay [5], in assay [8] and in assay [9] was above 100 µM each time. The TGI in assay [11] and in [12] was above 100 µM each time.
`NC1CC(=O)c2csc(Cl)c21` (stereo unspecified): the TGI amounted to 17.4 µM in [1]; 33.5 µM in assay [17]; 14.2 µM in assay [2]; 3.68 µM in assay [13]; 22.9 µM in assay [3]; 33.9 µM in assay [14]. The TGI in assay [15] was 9.56 µM; in assay [16] it was 35.9 µM; in [4], 32 µM; in assay [5], 36.7 µM; in [6], above 86.7 µM; in [8] it was 94.6 µM. Also, the TGI in assay [9] was 49.5 µM; in [10], 31.1 µM; in [12], 30.7 µM.
For `NCCCCN(CCCN)Cc1ccccc1`, the TGI in assay [1], in [17], in assay [2], in [13], in [3] and in [14] was above 100 µM in each case. Also, the TGI in [15], in assay [16], in [4], in [5], in assay [6] and in assay [8] was above 100 µM in each case. The TGI in assay [9], in [10], in assay [11] and in [12] was above 100 µM each time.
With `COc1ccc2c(c1)CCCN1Cc3cc(OC)c(OC)cc3CC21` (stereo unspecified), the TGI in [1], in [2], in assay [13], in assay [3], in assay [14] and in [15] was above 100 µM throughout. In addition, the TGI in assay [16], in assay [4], in [5], in assay [6], in assay [8] and in assay [9] was above 100 µM each time. Also, in assay [10], the TGI was above 100 µM.
With `COc1ccc(C2CC(=O)CC(c3ccc(OC)cc3)C23C(=O)NC(=S)NC3=O)cc1` (stereo unspecified), the TGI in assay [1], in assay [2], in [13], in assay [3], in [14] and in assay [15] was above 100 µM in each case. In addition, the TGI in assay [16], in assay [4], in assay [6], in assay [7], in assay [8] and in [9] was above 100 µM each time. This compound showed a TGI in [12] above 100 µM.
`CCCCCCCCCCCCCCCCOCC(COP(=O)([O-])OCC[n+]1ccc(N(C)C)cc1)OCC` (stereo unspecified): the TGI in [1] is 3.86 µM; in assay [2], 34.6 µM; in [13] it was 24.9 µM; in [3], 25.6 µM; in [14], 27.6 µM; in [15], 26.3 µM. Moreover, the TGI in [4] was determined as 30.2 µM; in assay [5], 30.4 µM; in assay [7], 23.9 µM; in [8], 33.7 µM; in assay [9], 25.4 µM; in assay [11], 17.1 µM. Further, the TGI in assay [12] came to 27 µM.
Regarding `O=C(Cc1ccccc1)NNc1nc(NNC(=O)c2ccncc2)nc(Nc2ccccc2)n1`, the TGI in [1], in assay [2], in [13], in [3], in assay [14] and in assay [15] was above 10 µM each time. The TGI in assay [16], in [6], in [7], in assay [9], in [10] and in assay [11] was above 10 µM in each case.
`CCOC(CI)O[C@@H]1C=C[C@H](OC(C)=O)C1` (stereo partly specified): the TGI in [1], in assay [17], in assay [2], in assay [13], in assay [3] and in [14] was above 100 µM in each case. The TGI in assay [15], in [16], in assay [4], in [5], in [6] and in assay [8] was above 100 µM in each case. Besides, the TGI in assay [9], in assay [10], in assay [11] and in assay [12] was above 100 µM throughout.
Consider `Cc1nc2ccccc2c(=O)n1NC(=S)Nc1cccc(Cl)c1`, for which the TGI in [1], in assay [17], in [2], in assay [13], in [3] and in assay [15] was above 100 µM throughout. Further, the TGI in assay [4], in assay [5], in [7], in assay [8], in assay [9] and in assay [10] was above 100 µM in each case. The TGI in assay [11] and in assay [12] was above 100 µM each time.
Consider `COc1c(C)c(C/C=C(\C)CCCCO)c(OC)c(OC)c1OC`, for which the TGI in assay [1] was 41.5 µM; in assay [2] it was above 100 µM; in assay [13], above 100 µM; in [3], above 100 µM; in [15], above 100 µM; in [16], above 100 µM. Further, the TGI in assay [4] was above 100 µM; in assay [5] it was 69.6 µM; in assay [6] it was above 100 µM; in assay [7] it was above 100 µM; in [9], 35.1 µM; in [10], above 100 µM. Besides, the TGI was 35.4 µM in assay [11] and above 100 µM in assay [12].
Turning to `CC(C)C1SCc2nc3ccccc3n21` (stereo unspecified), the TGI in assay [1] is 45.5 µM; in assay [17], 83.3 µM; in [2] it was above 100 µM; in assay [13], above 100 µM; in assay [3] it was above 100 µM; in [14] it was above 100 µM. Moreover, the TGI is above 100 µM in assay [15]; above 100 µM in assay [16]; above 100 µM in [4]; above 100 µM in assay [5]; above 100 µM in [6]; 0.96 µM in assay [8]. Also, the TGI in [9] was above 100 µM; in assay [10], above 100 µM; in assay [11] it was above 100 µM; in assay [12] it was 79.6 µM.
For the compound `O=C1Oc2ccccc2C(=O)/C1=C/N1C(=O)N/C(=C\c2cccc(O)c2)C1=O`, the TGI in [1], in assay [2], in [3], in assay [14], in [15] and in assay [16] was above 100 µM throughout. The TGI in assay [4], in assay [5], in assay [6], in assay [8], in [9] and in assay [10] was above 100 µM in each case. The TGI in [12] is above 100 µM.
On to `O=c1cc(-c2ccccc2)oc2ccc(-c3ccc4oc(-c5ccccc5)cc(=O)c4c3)cc12`, for which the TGI in [17] was determined as 27.9 µM; in assay [13], 43.7 µM; in [14], 30 µM; in [15], 30.8 µM; in assay [16] it was 20.1 µM; in [4], 43.4 µM. For the same compound, the TGI is 50.6 µM in assay [5]; 51.5 µM in assay [6]; 41.9 µM in [9]; above 100 µM in assay [10]; 32.6 µM in assay [11]; 32.7 µM in assay [12].
